Paper PMC11071220, “Identification and characterization of a new potent inhibitor targeting CtBP1/BARS in melanoma cells” (Journal of Experimental & Clinical Cancer Research : CR, 2024)

Tests used:
CtBP1/BARS [1] = target: T1, CtBP1/BARS (Rattus norvegicus, UniProt Q9Z2F5); test: ITC; also tryptophan fluorescence quenching (Kd […]); format: binding; design: His-CtBP1/BARS wt, full-length (CtBP1-S/BARS)
CtBP1/BARS [2] = target: T1, CtBP1/BARS; test: size-exclusion chromatography (dimer to tetramer shift, […] NAD+); pull-down of self-association; format: biochemical

Row | Compound | Kd (CtBP1/BARS [1]) | size-exclusion chromatography (dimer to tetramer shift, 100 μM NAD+); pull-down (CtBP1/BARS [2])
1 | O=C(Nc1ccc([N+](=O)[O-])cc1)Nc1ccc(S(=O)(=O)Nc2ccc(Cl)c(Cl)c2)cc1 [Comp.11, N-(3,4-dichlorophenyl)-4-{[(4-nitrophenyl)carbamoyl]amino}benzenesulfonamide] | 660 ± 200 nM | 
2 | NC(=O)c1ccc[n+]([C@@H]2O[C@H](COP(=O)([O-])OP(=O)(O)OC[C@H]3O[C@@H](n4cnc5c(N)ncnc54)[C@H](O)[C@@H]3O)[C@@H](O)[C@H]2O)c1 [NAD+] |  | The addition of NAD^+ shifts the elution patterns so that the majority of CtBP1/BARS elutes as a tetramer
